# Test results taken from article PMC5053523, “In Vitro Antibacterial Activity of Rhodanine Derivatives against Pathogenic Clinical Isolates” (PLoS ONE, 2016).
# Like-named read-outs stand apart in the source and are kept apart here.
# Assays:
# [1] = system: Klebsiella pneumoniae; test: MIC with/without sub-MIC colistin, Klebsiella pneumoniae; type: cell-based
# Method in brief: (§1)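 Rhodanines and control antibiotics are tested for MIC against Gram-negative bacteria while a sub-inhibitory level of colistin or PMBN is present. A strain of E. coli lacking the AcrAB efflux pump (SM1411ΔacrAB) serves as an additional test organism.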
# [2] = system: Salmonella Typhimurium; test: MIC with/without sub-MIC colistin, Salmonella Typhimurium; type: cell-based
# Method in brief: as §1
# [3] = system: B. licheniformis; test: Broth microdilution MIC/MBC, B. licheniformis; type: cell-based; conditions: Bacillus licheniformis; for MBC: read-out: MBC; for MIC: read-out: MIC
# [4] = system: Bacillus anthracis; test: microbe, parasite or virus in culture; type: cell-based
# [5] = system: B. cereus; test: Broth microdilution MIC/MBC, B. cereus; type: cell-based; conditions: Bacillus cereus; for MBC: read-out: MBC; for MIC: read-out: MIC
# Source text: The broth microdilution technique was used, followed by subculturing on agar plates that were rhodanine—free.
# [6] = system: vancomycin resistant enterococci (VRE) E. faecium; test: Broth microdilution MIC/MBC, VRE E. faecium; type: cell-based; conditions: for MIC: read-out: MIC
# [7] = system: Acinetobacter baumannii; test: MIC with/without PMBN, Acinetobacter baumannii; type: cell-based
# Method in brief: as §1
# [8] = system: Acinetobacter baumannii; test: Broth microdilution MIC, Acinetobacter baumannii; type: cell-based
# [9] = system: P. aeruginosa; test: Broth microdilution MIC, P. aeruginosa; type: cell-based; conditions: Pseudomonas aeruginosa
# [10] = system: vancomycin resistant enterococci (VRE); test: Broth microdilution MIC50/MIC90, VRE panel; type: cell-based; conditions: Enterococcus, 10 VRE strains; for MIC90: VRE, read-out: MIC 90; for MIC50: read-out: MIC 50
# [11] = system: Klebsiella pneumoniae; test: MIC with/without PMBN, Klebsiella pneumoniae; type: cell-based
# Method in brief: as §1
# [12] = system: MRSA USA300; test: MIC against MRSA USA300 with and without 4% human serum albumin; type: cell-based, Staphylococcus aureus; conditions: Staphylococcus aureus, read-out: MIC against MRSA USA300
# Method in brief: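 Broth microdilution MIC per CLSI against MRSA USA300, run in tryptic soy broth alone and with 4% human serum albumin. MIC is the lowest concentration inhibiting growth.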
# [13] = system: vancomycin resistant enterococci (VRE) E. faecalis; test: Broth microdilution MIC/MBC, VRE E. faecalis; type: cell-based; conditions: for MIC: read-out: MIC
# [14] = Klebsiella pneumoniae ATCC BAA 2146, colistin (+) […]
# [15] = Salmonella Typhimurium ATCC 700720, colistin (+) […], read-out: MIC
# [16] = Salmonella enterica, ATCC 700720 / TYPHIMURIUM
# [17] = NCIB9375, B. licheniformis Gibson 46 (NCIB 9375) NR-2494
# [18] = NRS712, B. licheniformis NRS 712 NR-2499
# [19] = NRS201, B. cereus NRS 201 NR-2488
# [20] = E. faecium HM 968 Strain ERV102
# [21] = E. faecium NR31914 Strain E0120
# [22] = E. faecium Patient #1–1 NR-31903
# [23] = Acinetobacter baumannii ATCC BAA747, PMBN (+) 4 μg/mL, read-out: MIC
# [24] = Acinetobacter baumannii ATCC BAA19606, PMBN (+) 4 μg/mL, read-out: MIC
# [25] = Acinetobacter baumannii, ATCCBAA747
# [26] = Acinetobacter baumannii, ATCCBAA19606
# [27] = Klebsiella pneumoniae ATCC BAA 1706, PMBN (+) 4 μg/mL
# [28] = Klebsiella pneumoniae ATCC BAA 2146, PMBN (+) 4 μg/mL
# [29] = E. faecalis NR31972 Strain SF 28073
smiles,measurement,setting,value
O=C(O)[C@H](Cc1ccccc1)N1C(=O)/C(=C/c2cccc(OC/C=C/c3ccc(Cl)c(Cl)c3)c2)SC1=S [Rh 6],MIC,[1]; [14],>64 µM
same,MIC,"[1]; Klebsiella pneumoniae, BAA2146",> 128 µM
same,MIC,[2]; [15],>64 µM
same,MIC,[2]; [16],> 128 µM
same,MBC,[3]; [17],4 µM
same,MIC,[3]; [17],4 µM
same,MBC,[3]; [18],4 µM
same,MIC,[3]; [18],4 µM
same,MBC,[4]; Bacillus anthracis AMES35,2 µM
same,MIC,[4]; Bacillus anthracis AMES35,2 µM
same,MBC,[4]; Bacillus anthracis UM23,2 µM
same,MIC,[4]; Bacillus anthracis UM23,2 µM
same,MBC,[4]; Bacillus anthracis Weybridge,2 µM
same,MIC,[4]; Bacillus anthracis Weybridge,2 µM
same,MBC,[5]; B. cereus BAG1O-2 NR-28582,4 µM
same,MIC,[5]; B. cereus BAG1O-2 NR-28582,4 µM
same,MBC,[5]; B. cereus BAG1X1-1 NR-28575,4 µM
same,MIC,[5]; B. cereus BAG1X1-1 NR-28575,4 µM
same,MBC,[5]; B. cereus BAG1X2-1 NR-28578,4 µM
same,MIC,[5]; B. cereus BAG1X2-1 NR-28578,4 µM
same,MBC,[5]; B. cereus G9241 NR-9564,4 µM
same,MIC,[5]; B. cereus G9241 NR-9564,4 µM
same,MBC,[5]; B. cereus VD014 NR-22141,4 µM
same,MIC,[5]; B. cereus VD014 NR-22141,4 µM
same,MBC,[5]; B. cereus VD115 NR-22148,4 µM
same,MIC,[5]; B. cereus VD115 NR-22148,4 µM
same,MBC,[5]; B. cereus VD148 NR-22150,4 µM
same,MIC,[5]; B. cereus VD148 NR-22150,4 µM
same,MBC,[5]; [19],4 µM
same,MIC,[5]; [19],4 µM
same,MBC,[6]; E. faecium E417 HM-965,> 64 µM
same,MIC,[6]; E. faecium E417 HM-965,4 µM
same,MBC,[6]; E. faecium E1071 NR-28978,> 64 µM
same,MIC,[6]; E. faecium E1071 NR-28978,8 µM
same,MBC,[6]; [20],> 64 µM
same,MIC,[6]; [20],8 µM
same,MBC,[6]; [21],64 µM
same,MIC,[6]; [21],8 µM
same,MBC,[6]; [22],> 64 µM
same,MIC,[6]; [22],4 µM
same,MIC,[7]; [23],>64 µM
same,MIC,[7]; [24],>64 µM
same,MIC,[7]; [25],> 128 µM
same,MIC,[7]; [26],> 128 µM
same,MIC,[8]; ATCC13345,> 128 µM
same,MIC,[8]; ATCC17786,> 128 µM
same,MIC,[9]; ATCC9721,> 128 µM
same,MIC,[9]; ATCC15442,> 128 µM
same,MIC90,[10],8 µM
same,MIC50,[10],8 µM
same,MIC,[11]; [27],>64 µM
same,MIC,[11]; [28],>64 µM
same,MIC,"[11]; Klebsiella pneumoniae, BAA1706",> 128 µM
same,MIC,"[11]; Klebsiella pneumoniae, BAA2146",> 128 µM
same,MIC,"[12]; 24 h, Media TSB + 4% HSA",> 64 µM
same,MIC,[12]; Media TSB,8 µM
same,MBC,[13]; E. faecalis ERV103 HM-934,16 µM
same,MIC,[13]; E. faecalis ERV103 HM-934,8 µM
same,MBC,[13]; [29],16 µM
same,MIC,[13]; [29],8 µM
same,MBC,[13]; E. faecalis R712 HM-335,8 µM
same,MIC,[13]; E. faecalis R712 HM-335,4 µM
same,MBC,[13]; E. faecalis S613 HM-334,16 µM
same,MIC,[13]; E. faecalis S613 HM-334,8 µM
same,MBC,[13]; E. faecalis TX0104 HM-201,8 µM
same,MIC,[13]; E. faecalis TX0104 HM-201,8 µM
O=C(O)[C@@H](Cc1ccccc1)N1C(=O)/C(=C/c2cccc(Cc3ccccc3)c2)SC1=S [Rh 7],MIC,[1]; [14],>64 µM
same,MIC,"[1]; Klebsiella pneumoniae, BAA2146",> 128 µM
same,MIC,[2]; [15],>64 µM
same,MIC,[2]; [16],> 128 µM
same,MBC,[3]; [17],8 µM
same,MIC,[3]; [17],8 µM
same,MBC,[3]; [18],8 µM
same,MIC,[3]; [18],8 µM
same,MBC,[4]; Bacillus anthracis AMES35,2 µM
same,MIC,[4]; Bacillus anthracis AMES35,2 µM
same,MBC,[4]; Bacillus anthracis UM23,2 µM
same,MIC,[4]; Bacillus anthracis UM23,2 µM
same,MBC,[4]; Bacillus anthracis Weybridge,2 µM
same,MIC,[4]; Bacillus anthracis Weybridge,2 µM
same,MBC,[5]; B. cereus BAG1O-2 NR-28582,4 µM
same,MIC,[5]; B. cereus BAG1O-2 NR-28582,4 µM
same,MBC,[5]; B. cereus BAG1X1-1 NR-28575,4 µM
same,MIC,[5]; B. cereus BAG1X1-1 NR-28575,2 µM
same,MBC,[5]; B. cereus BAG1X2-1 NR-28578,4 µM
same,MIC,[5]; B. cereus BAG1X2-1 NR-28578,4 µM
same,MBC,[5]; B. cereus G9241 NR-9564,8 µM
same,MIC,[5]; B. cereus G9241 NR-9564,8 µM
same,MBC,[5]; B. cereus VD014 NR-22141,4 µM
same,MIC,[5]; B. cereus VD014 NR-22141,4 µM
same,MBC,[5]; B. cereus VD115 NR-22148,4 µM
same,MIC,[5]; B. cereus VD115 NR-22148,4 µM
same,MBC,[5]; B. cereus VD148 NR-22150,4 µM
same,MIC,[5]; B. cereus VD148 NR-22150,4 µM
same,MBC,[5]; [19],4 µM
same,MIC,[5]; [19],4 µM
same,MBC,[6]; E. faecium E417 HM-965,64 µM
same,MIC,[6]; E. faecium E417 HM-965,8 µM
same,MBC,[6]; E. faecium E1071 NR-28978,> 64 µM
same,MIC,[6]; E. faecium E1071 NR-28978,16 µM
same,MBC,[6]; [20],> 64 µM
same,MIC,[6]; [20],16 µM
same,MBC,[6]; [21],32 µM
same,MIC,[6]; [21],16 µM
same,MBC,[6]; [22],16 µM
same,MIC,[6]; [22],8 µM
same,MIC,[7]; [23],>64 µM
same,MIC,[7]; [24],>64 µM
same,MIC,[7]; [25],> 128 µM
same,MIC,[7]; [26],> 128 µM
same,MIC,[8]; ATCC13345,> 128 µM
same,MIC,[8]; ATCC17786,> 128 µM
same,MIC,[9]; ATCC9721,> 128 µM
same,MIC,[9]; ATCC15442,> 128 µM
same,MIC90,[10],16 µM
same,MIC50,[10],16 µM
same,MIC,[11]; [27],>64 µM
same,MIC,[11]; [28],>64 µM
same,MIC,"[11]; Klebsiella pneumoniae, BAA1706",> 128 µM
same,MIC,"[11]; Klebsiella pneumoniae, BAA2146",> 128 µM
same,MIC,"[12]; 24 h, Media TSB + 4% HSA",> 64 µM
same,MIC,[12]; Media TSB,16 µM
same,MBC,[13]; E. faecalis ERV103 HM-934,16 µM
same,MIC,[13]; E. faecalis ERV103 HM-934,16 µM
same,MBC,[13]; [29],16 µM
same,MIC,[13]; [29],16 µM
same,MBC,[13]; E. faecalis R712 HM-335,16 µM
same,MIC,[13]; E. faecalis R712 HM-335,8 µM
same,MBC,[13]; E. faecalis S613 HM-334,16 µM
same,MIC,[13]; E. faecalis S613 HM-334,16 µM
same,MBC,[13]; E. faecalis TX0104 HM-201,16 µM
same,MIC,[13]; E. faecalis TX0104 HM-201,16 µM
